# Data reported in article PMC10367051, “Comprehensive Mechanistic View of the Hydrolysis of Oxadiazole-Based Inhibitors by Histone Deacetylase 6 (HDAC6)” (ACS Chemical Biology, 2023).
# Where a chain is given by its changes, count along the chain named.
# What was measured:
# wild-type zHDAC6 = target: T1, wild-type zHDAC6 (Danio rerio, UniProt F8W4B7); experiment: Inhibitor hydrolysis in vitro by purified wild-type HDAC6 (LC-MS/MS); assay type: biochemical; conditions: 20 μM 8, 2 μM zHDAC6, 30 °C
# T1 construct: Danio rerio HDAC6 (amino acids 440–798; zHDAC6); His (N, cleaved yes); MBP (N, cleaved yes); made in house; host or cells: RIPL Escherichia coli
# T1 sequence (F8W4B7 440-798): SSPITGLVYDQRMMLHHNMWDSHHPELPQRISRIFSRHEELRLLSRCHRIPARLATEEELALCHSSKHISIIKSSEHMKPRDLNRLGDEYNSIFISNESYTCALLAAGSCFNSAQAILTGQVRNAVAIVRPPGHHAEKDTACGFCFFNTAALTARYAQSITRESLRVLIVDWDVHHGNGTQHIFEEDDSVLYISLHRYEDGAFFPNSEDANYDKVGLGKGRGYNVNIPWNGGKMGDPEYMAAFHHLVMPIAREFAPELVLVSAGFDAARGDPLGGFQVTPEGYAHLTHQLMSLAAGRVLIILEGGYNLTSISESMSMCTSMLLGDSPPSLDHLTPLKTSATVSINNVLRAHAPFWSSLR
# Procedure: The second catalytic domain of Danio rerio HDAC6 (amino acids 440–798; zHDAC6) was expressed in RIPL Escherichia coli as described previously using the pEC566-zHDAC6 expression vector.[16],[38] Briefly, bacteria were incubated at 37 °C with shaking (250 rpm) until the optical density reached an OD600 = 0.5. Then, the culture was cooled to 18 °C for 1 h, and recombinant protein expression was induced by the addition of 75 μM isopropyl β-D-1-thiogalactopyranoside together with 200 μM ZnSO4. The culture was grown at 18 °C for an additional 18 h and harvested by centrifugation at 5500g for 15 min. […] The purity of protein preparations was monitored by SDS-PAGE (Figure S2).
# Mass spectrometry quantification of inhibitors/reaction products was carried out with a Shimadzu LCMS-8040 instrument (Shimadzu, HPLC Prominence system). […] Multiple reaction monitoring (MRM) parameters were optimized for each analyte, and corresponding major CID fragments were used for quantification. Analytes were quantified using corresponding calibration curves generated from pure compounds dissolved in water.
# […] Four microliter aliquots of reaction mixtures were injected into the system directly from the 96-well plate, and inhibitors/reaction products were quantitated as described above.
# HEK293T cell lysates = experiment: Inhibitor hydrolysis in HEK293T cell lysates (LC-MS/MS); assay type: in vitro ADME; conditions: 20 μM 8, 2.5 mg mL^–1 protein, 37 °C
# Procedure: (§1) Mass spectrometry quantification of inhibitors/reaction products was carried out with a Shimadzu LCMS-8040 instrument (Shimadzu, HPLC Prominence system). Analytes were separated on a Kinetex XB-C18 2.6 μm, 100 Å column (50 × 2.1 mm; Phenomenex) in a linear 15–60% CH3CN/H2O gradient containing 0.1% formic acid at a flow rate of 0.8 mL min^–1 over 4 min. Multiple reaction monitoring (MRM) parameters were optimized for each analyte, and corresponding major CID fragments were used for quantification. Analytes were quantified using corresponding calibration curves generated from pure compounds dissolved in water.
# HEK293T cells and the HEK293T cell line stably transfected with human HDAC6 were grown in FreeStyle 293 medium supplemented with 1% FBS. Cells were harvested by centrifugation at 500g for 5 min, and cell pellets were resuspended in the lysis buffer (50 mM HEPES, 140 mM NaCl, 10 mM KCl, and 0.5% NP-40 at pH 7.4). Following short sonication (3 × 5 s), the cell lysates were centrifuged at 20,000g for 10 min, supernatants were transferred to fresh tubes, and the total protein concentration was adjusted to 4 mg mL^–1 by the addition of the lysis buffer. […] Following 15 min incubation on ice, stopped reactions were centrifuged at 20,000g for 10 min, and supernatants were analyzed by LC–MS as described above.
# HDAC6(H574A) mutant = target: T2, HDAC6(H574A) mutant (Danio rerio, UniProt F8W4B7, H574A); experiment: Inhibitor hydrolysis in vitro by HDAC6(H574A) mutant (LC-MS/MS); assay type: biochemical; conditions: 20 μM compound, 2 μM enzyme, 30 °C
# T2 construct: Danio rerio HDAC6 (amino acids 440–798; zHDAC6); His (N, cleaved yes); MBP (N, cleaved yes); made in house; host or cells: RIPL Escherichia coli
# T2 sequence (F8W4B7 440-798 H574A): T1 sequence (F8W4B7 440-798) with H135A
# Procedure: The zHDAC6 mutants (Y745F and H574A) were constructed using the Quick-change site-directed mutagenesis protocol with the pEC566-zHDAC6 expression plasmid as a template. Both mutants were expressed and purified as described above for wild-type zHDAC6 (Figure S2).
# as §1
# […] […] Four microliter aliquots of reaction mixtures were injected into the system directly from the 96-well plate, and inhibitors/reaction products were quantitated as described above.
smiles,measurement,setting,value
CS(=O)(=O)N(Cc1ccc(-c2nnc(C(F)F)o2)cn1)c1cccc(Cl)c1 [compound 8],time of near-complete depletion of the inhibitor,wild-type zHDAC6,approximately 120 min
same,time to full hydrolysis of the inhibitor,wild-type zHDAC6,< 180 min
same,hydrolysis in HEK293T cell lysate,HEK293T cell lysates,hydrolyzed 8 to 6 and 4
same,hydrolysis by the HDAC6(H574A) mutant,HDAC6(H574A) mutant,no hydrolysis was observed
